Test system: E2-induced (ER target) genes in MCF7
Experiment: Gene expression analysis by RNA-sequencing in MCF7 with E2 stimulation
Format: cell-based, human
Conditions: MCF7; 1 nM E2 ± 1 μM compound, 24 h
Procedure: MCF7 were cultured in hormone deprivation media (with 10% charcoal-stripped FBS) for at least 3 days before assay. Trypsinized cells were seeded in a 12-well plate, stimulated with 1 nM β-estradiol (E2), and treated with/without 1 μM compounds for 24 h. Total RNA was extracted using the TRIzol reagent according to the manufacturer’s protocol. RNA purity and quantification were evaluated using the NanoDrop 2000 spectrophotometer (Thermo Scientific, USA). RNA integrity was assessed using the Agilent 2100 Bioanalyzer (Agilent Technologies, Santa Clara, CA, USA). Then the libraries were constructed using TruSeq Stranded mRNA LT Sample Prep Kit (Illumina, San Diego, CA, USA) according to the manufacturer’s instructions. The transcriptome sequencing and analysis were conducted by OE Biotech Co., Ltd. (Shanghai, China). The libraries were sequenced on an Illumina HiSeq X Ten platform and 150 bp paired-end reads were generated. […] Raw data (raw reads) of FASTq format were firstly processed using Trimmomatic and the low-quality reads were removed to obtain the clean reads. […] The clean reads were mapped to the human genome (GRCh38) using HISAT2 [27]. FPKM [28] of each gene was calculated using Cufflinks, and the read counts of each gene were obtained by HTSeqcount. Differential expression analysis was performed using the DESeq (2012) R package.
MCF7 with hormone-deprived pre-treatment were administrated ER ligands or not present with 1 nM E2 stimulation for 24 h incubation in a 12-well plate. Total mRNA was isolated from treated cells and sequenced on an Illumina HiSeq X Ten platform. FPKM of each gene was calculated using Cufflinks and Differential expression genes analysis by using the DESeq (2012) R package. […] T47D EFM-19 and HCC1500 cells were grown in RPMI media supplemented with 10% charcoal-stripped FBS for 14 days and then treated with ER antagonist (1 μM) or DMSO in the presence E2 (1nM) stimulation for 24 h before RNA isolation and gene expression analysis as described in methods. […] The uteruses were harvested 24 h after the final doses and stained by toluidine blue. Endometrial height was assessed from the basement membrane to the luminal border (scale bar in green lines: 200 μm), Arrows indicate the uterine epithelium (e).

`C[C@]12CC[C@@H]3c4ccc(O)cc4CC[C@H]3[C@@H]1CC[C@@H]2O` [E2, β-estradiol] was tested, and the ACTG2 expression was 3.78 FPKM, the ADCY1 expression was 29.74 FPKM and the AGR3 expression was 24.59 FPKM. The AMZ1 expression was 3.24 FPKM, the ANLN expression was 47.32 FPKM and the ARHGAP36 expression was 3.84 FPKM. For the same molecule, the ASCL1 expression was 5.48 FPKM, the ASF1B expression was 78.22 FPKM and the ASMTL-2 expression was 6.46 FPKM. For the same molecule, the ATAD2 expression was 69.95 FPKM, the ATRNL1 expression was 0.42 FPKM and the AURKB expression was 43.03 FPKM. It also gave a BIRC5 expression of 50.28 FPKM, a BLM expression of 8.02 FPKM and a BMPER expression of 1.39 FPKM. The BRCA1 expression was 9.45 FPKM, the BRCA2 expression was 5.65 FPKM and the BRIP1 expression was 54.99 FPKM. It also gave a BUB1B expression of 18.35 FPKM, a C1orf226 expression of 13.05 FPKM and a C5AR2 expression of 3.18 FPKM. The CA2 expression was 184.51 FPKM, the CA12 expression was 52.56 FPKM and the CALCR expression was 6.65 FPKM. It also gave a CAV1 expression of 11.53 FPKM, a CCN5 expression of 50.43 FPKM and a CCNA2 expression of 35.91 FPKM. For the same molecule, the CCNE2 expression was 17.15 FPKM, the CD99-2 expression was 8.67 FPKM and the CDC6 expression was 16.34 FPKM. For the same molecule, the CDC25A expression was 7.21 FPKM, the CDC45 expression was 22.61 FPKM and the CDCA3 expression was 12.59 FPKM. For the same molecule, the CDCA4 expression was 35.30 FPKM, the CDCA5 expression was 32.97 FPKM and the CDCA7 expression was 8.46 FPKM. The CDH26 expression was 1.84 FPKM, the CDK1 expression was 34.56 FPKM and the CDT1 expression was 51.94 FPKM. It also gave a CENPI expression of 6.53 FPKM, a CENPU expression of 12.95 FPKM and a CHAF1B expression of 5.21 FPKM. It also gave a CHEK1 expression of 5.59 FPKM, a CKS1B expression of 97.65 FPKM and a CLSPN expression of 5.95 FPKM. The COL12A1 expression was 4.88 FPKM, the CXCL12 expression was 18.59 FPKM and the DDIAS expression was 9.79 FPKM. It also gave a DHRSX-2 expression of 1.19 FPKM, a DKK1 expression of 65.08 FPKM and a DNA2 expression of 7.03 FPKM. It also gave a DPYSL5 expression of 1.59 FPKM, a DSCC1 expression of 15.71 FPKM and a DTL expression of 6.96 FPKM. For the same molecule, the E2F1 expression was 27.20 FPKM, the E2F2 expression was 5.64 FPKM and the E2F7 expression was 9.64 FPKM. The E2F8 expression was 10.32 FPKM, the ELOVL2 expression was 16.88 FPKM and the EME1 expression was 10.05 FPKM. For the same molecule, the ERCC6L expression was 4.70 FPKM, the ESCO2 expression was 7.26 FPKM and the ESPL1 expression was 17.48 FPKM. For the same molecule, the EXO1 expression was 10.16 FPKM, the FAM20A expression was 2.20 FPKM and the FAM111B expression was 12.41 FPKM. For the same molecule, the FANCA expression was 22.66 FPKM, the FANCD2 expression was 15.48 FPKM and the FANCI expression was 48.65 FPKM. The FEN1 expression was 69.25 FPKM, the FIGNL1 expression was 5.08 FPKM and the FKBP4 expression was 141.57 FPKM. It also gave a GATA4 expression of 0.17 FPKM, a GFRA1 expression of 93.16 FPKM and a GINS1 expression of 23.84 FPKM. The GINS2 expression was 36.18 FPKM, the GJA1 expression was 1.09 FPKM and the GLA expression was 91.41 FPKM. It also gave a GP1BB expression of 2.96 FPKM, a GPR68 expression of 2.46 FPKM and a GPRIN1 expression of 8.93 FPKM. The GREB1 expression was 60.67 FPKM, the H2AX expression was 195.62 FPKM and the HBB expression was 2.07 FPKM. It also gave an HELLS expression of 7.42 FPKM, an HEY2 expression of 5.27 FPKM and an HMGB2 expression of 247.66 FPKM. For the same molecule, the IGFBP4 expression was 131.73 FPKM, the IGSF1 expression was 11.09 FPKM and the ITGA2B expression was 1.22 FPKM. The KIF11 expression was 25.57 FPKM, the KIF18B expression was 9.55 FPKM and the KIFC1 expression was 32.81 FPKM. It also gave a KLK11 expression of 14.79 FPKM, a KNL1 expression of 7.74 FPKM and a KNTC1 expression of 15.58 FPKM. The LHX2 expression was 3.63 FPKM, the LIG1 expression was 50.95 FPKM and the LMNB1 expression was 103.66 FPKM. It also gave an MAD2L1 expression of 15.82 FPKM, an MCM2 expression of 79.68 FPKM and an MCM3 expression of 73.54 FPKM. It also gave an MCM4 expression of 90.54 FPKM, an MCM5 expression of 31.11 FPKM and an MCM6 expression of 49.04 FPKM. The MCM7 expression was 195.09 FPKM, the MCM10 expression was 11.30 FPKM and the MELK expression was 23.52 FPKM. The MKI67 expression was 43.57 FPKM, the MYB expression was 14.56 FPKM and the MYBL1 expression was 7.63 FPKM. The MYBL2 expression was 105.97 FPKM, the NCAPG2 expression was 42.44 FPKM and the NCAPG expression was 16.64 FPKM. The NPY1R expression was 21.66 FPKM, the ORC1 expression was 9.75 FPKM and the ORC6 expression was 17.34 FPKM. It also gave a PAQR4 expression of 27.39 FPKM, a PBK expression of 34.81 FPKM and a PCLAF expression of 64.57 FPKM. For the same molecule, the PCNA expression was 139.06 FPKM, the PDZK1 expression was 5.01 FPKM and the PGR expression was 8.19 FPKM. The PKIB expression was 60.35 FPKM, the PKMYT1 expression was 41.08 FPKM and the POLA1 expression was 6.08 FPKM. For the same molecule, the POLA2 expression was 14.49 FPKM, the POLD1 expression was 24.97 FPKM and the POLE2 expression was 6.15 FPKM. It also gave a POLE expression of 25.41 FPKM, a POLQ expression of 6.41 FPKM and a PRIM1 expression of 28.80 FPKM. For the same molecule, the PRSS23 expression was 215.68 FPKM, the RAB31 expression was 21.61 FPKM and the RAD51AP1 expression was 13.82 FPKM. The RAD51 expression was 9.69 FPKM, the RAD54L expression was 12.35 FPKM and the RAMP3 expression was 13.53 FPKM. It also gave an RAPGEFL1 expression of 7.70 FPKM, an RBL1 expression of 5.83 FPKM and an RECQL4 expression of 32.15 FPKM. For the same molecule, the RERG expression was 8.59 FPKM, the RET expression was 10.12 FPKM and the RFC2 expression was 36.71 FPKM. For the same molecule, the RFC3 expression was 9.92 FPKM, the RFC4 expression was 27.17 FPKM and the RNASEH2A expression was 63.93 FPKM. For the same molecule, the RRM1 expression was 40.40 FPKM, the RRM2 expression was 98.16 FPKM and the RUBCNL expression was 1.40 FPKM. It also gave an SDK2 expression of 1.00 FPKM, an SFXN2 expression of 31.80 FPKM and an SHCBP1 expression of 7.21 FPKM. The SKA3 expression was 14.05 FPKM, the SLC6A14 expression was 33.54 FPKM and the SMC2 expression was 14.75 FPKM. The SPC24 expression was 17.07 FPKM, the SPC25 expression was 16.49 FPKM and the STC2 expression was 134.11 FPKM. It also gave a TACC3 expression of 40.66 FPKM, a TCF19 expression of 21.19 FPKM and a TCOF1 expression of 21.81 FPKM. It also gave a TGM2 expression of 1.78 FPKM, a TICRR expression of 10.96 FPKM and a TK1 expression of 126.85 FPKM. The TMEM26 expression was 4.29 FPKM, the TMEM164 expression was 18.93 FPKM and the TONSL expression was 21.56 FPKM. For the same molecule, the TOP2A expression was 69.34 FPKM, the TP73 expression was 3.93 FPKM and the TRIP13 expression was 21.48 FPKM. For the same molecule, the TUBA1B expression was 1112.26 FPKM, the TUBB expression was 568.06 FPKM and the TYMS expression was 74.96 FPKM. The UBE2C expression was 67.26 FPKM, the UBE2T expression was 108.61 FPKM and the UHRF1 expression was 26.62 FPKM. It also gave a UNG expression of 64.43 FPKM, a WDHD1 expression of 10.21 FPKM and a WDR62 expression of 15.52 FPKM. The WDR76 expression was 5.46 FPKM, the XRCC2 expression was 7.64 FPKM and the XRCC3 expression was 19.64 FPKM. For the same molecule, the ZGRF1 expression was 3.51 FPKM and the ZNF367 expression was 15.85 FPKM.

From article PMC10426190 (Breast Cancer Research : BCR, 2023)
